According to US10959966B2, “Compositions and methods for modulating HEXM1 expression” (CASE WESTERN RESERVE UNIVERSITY, priority 2014, dated 2021):

Tests used:
[1] = system: recruitment of CDK9 to HEXIM1 gene in MCF7 cells; experiment: ChIP assay, CDK9 recruitment to HEXIM1 gene, MCF7 cells; format: cell-based; settings: 5 mM HMBA or 50 μM 4a1, 90 minutes
Method: (§1) FIGS. 6(A-B) illustrate graphs showing HEXIM1 graphs showing HMBA and 4a1 induced recruitment of CDK9 to HEXIM1 promoter in MCF7 and LNCaP cells treated with 5 mM HMBA or 50 μM 4a1 for 90 minutes.
(§2) ChIP assays were carried out as previously described. Anti-CDK9 antibody (D-7; cat# sc-13130) was obtained from Santa Cruz Biotechnology.
(§3) The induction of HEXIM1 by HMBA appears to involve the release of free P-TEFb from 7SK snRNP, and recruitment of P-TEFb to HEXIM1 gene. P-TEFb is a heterodimer between the cyclin-dependent kinase 9 (Cdk9) and its regulatory subunit Cyclin T1 (CycT1). We thus determined the regulation of the recruitment of CDK9 to the HEXIM1 coding sequence by HMBA and 4a1.

[2] = system: recruitment of CDK9 to HEXIM1 gene in LNCaP cells; experiment: ChIP assay, CDK9 recruitment to HEXIM1 gene, LNCaP cells; format: cell-based; settings: 5 mM HMBA or 50 μM 4a1, 90 minutes
Method: as §1, §2, §3

[3] = system: p21 expression in breast cancer MCF7 cells; experiment: p21 expression by western blot, MCF7 cells; format: cell-based; settings: 5 mM HMBA or 50 μM 4a1, 18 hours
Method: (§4) FIGS. 7(A-B) illustrate Western blots showing (A) MCF7 (control siRNA or HEXIM1 siRNA) and (B) LNCaP (control shRNA or HEXIM1 shRNA) cells treated with vehicle (DMSO), 5 mM HMBA, or 50 μM 4a1 for 18 hours.
(§5) Cell lysates were analyzed by western blot as previously described. Anti-HEXIM1 was generated in the Montano laboratory. Primary antibodies against p21 (C-19; cat# sc-397), cyclin D1 (HD11; cat# sc-246) and myc (9E10; cat# sc-40) were obtained from Santa Cruz Biotechnology. Anti-GAPDH was obtained from Millipore. Anti-HIF-1α was obtained from Oxy-cell, Bioresearch).
(§6) HMBA was investigated in a Phase II clinical trial due to its potent anti-cancer and cell differentiation activities. Moreover, the roles of HMBA, and potentially 4a1, as differentiating factors are advantageous for their therapeutic use when compared to cytotoxic agents. […] We also examined the ability of 4a1 to induce differentiation and the relative role of HEXIM1.

[4] = system: p21 expression in prostate cancer LNCaP cells; experiment: p21 expression by western blot, LNCaP cells; format: cell-based; settings: 5 mM HMBA or 50 μM 4a1, 18 hours
Method: as §4, §5, §6

[5] = system: MCF7 cells; experiment: Nile red staining of lipid droplets (differentiation marker), MCF7 cells; format: cell-based; settings: 72 hours
Method: (§7) FIGS. 8(A-B) illustrate images showing (A) MCF7 cells transfected with control or HEXIM1 siRNA or (B) MDA-MB-231 transfected with control or HEXIM1 expression vector treated with vehicle (DMSO), HMBA, or 4a1 for 72 hours. Lower panels show Western blot analyses of HEXIM1 expression in MDA-MB-231 cells transfected with control or expression vector for Flag-tagged HEXIM1.
(§8) Cells were stained with Nile red for lipid droplets (marker of cell differentiation). Briefly, the stock solution of Nile red 1 mg/ml in acetone was diluted in PBS (1:1000). The fixed cells (4% paraformaldehyde) were incubated with diluted Nile red for 5 minutes at room temperature, rinsed with PBS and observed for the presence of lipid droplets by confocal microscopy. Images were digitally captured using a Leica microscope (Leica Microsystems Inc, IL, USA).

[6] = system: triple negative MDA-MB-231 breast cancer cells; experiment: Nile red staining of lipid droplets (differentiation marker), MDA-MB-231 cells; format: cell-based; settings: 72 hours
Method: as §7, §8

[7] = system: HEXIM1 expression in MCF7/TOTR cells; experiment: HEXIM1 expression in tamoxifen resistant MCF7/TOTR cells; format: cell-based; settings: 5 mM HMBA or 50 μM 4a1
Method: (§9) FIGS. 9(A-B) illustrate a Western blot and plots showing HEXIM1 expression in MCF7 and MCF7(TOTR) cells in the presence of vehicle (DMSO), 5 mM HMBA or 50 μM 4a1.
MCF7, MDA-MB-231, and LNCaP cells were obtained from the American Tissue Culture Collection, and were maintained as previously described. Construction of expression vectors for control miRNA or HEXIM1 miRNAs were described previously. MCF7 or LNCaP cells were transfected with expression vectors containing either the HEXIM1 miRNA insert or a control miRNA insert as previously described. Following blasticidin selection, cells expressing the highest level of GFP were flow-sorted and expanded. MDA-MB-231 cells were transfected with control or expression vector for Flag-tagged HEXIM1 as previously described. […]
Cell lysates were analyzed by western blot as previously described. […]
(§10) We have reported that HEXIM1 is required for the ability of antiestrogens to inhibit the activity of the Estrogen Receptor, that loss of HEXIM1 results in agonistic activity of tamoxifen, and that recurrence after tamoxifen therapy can be correlated with loss of HEXIM1 expression in human breast tissue samples. Thus we determined if HMBA and 4a1 can enhance sensitivity to tamoxifen of a tamoxifen resistant breast cancer line (MCF7/TOTR). […]

[8] = system: tamoxifen resistant breast cancer line (MCF7/TOTR); experiment: MTT proliferation assay, sensitivity to trans-hydroxytamoxifen; format: cell-based; settings: 7 days, 5 mM HMBA or 50 μM 4a1
Method: as §9
MCF7, MDA-MB-231, and LNCaP cells were obtained from the American Tissue Culture Collection, and were maintained as previously described. Construction of expression vectors for control miRNA or HEXIM1 miRNAs were described previously. MCF7 or LNCaP cells were transfected with expression vectors containing either the HEXIM1 miRNA insert or a control miRNA insert as previously described. Following blasticidin selection, cells expressing the highest level of GFP were flow-sorted and expanded. […]
MCF7 cells were plated onto 96 well plates and treated with 17β-estradiol±trans-hydroxytamoxifen in the presence of DMSO (vehicle), HMBA or 4a1 for 7 days. Cell proliferation was assessed using the MTT based Cell Growth Determination Kit from Sigma-Aldrich according to the manufacturer's protocol.
as §10

[9] = system: HEXIM1 targets in MCF7 cells; experiment: Western blot of HEXIM1 targets in MCF7 cells; format: cell-based; settings: 5 mM HMBA or 50 uM 4a1, 18 h, relative to GAPDH
Method: FIG. 10 illustrates a Western blot of MCF7 cells treated with vehicle, 5 mM HMBA, or 50 uM 4a1 for 18 h, and processes for analyses of HEXIM1 targets relative to GAPDH.
as §5
To assess the clinical potential of HMBA and 4a1 we need to determine to what extent the targets of HMBA and 4a1 overlap with that of HEXIM1. We focused on direct targets of HEXIM1 that we have identified.

[10] = system: HEXIM1; settings: in vitro cell cultures; cited from earlier work
[11] = cited from earlier work
[12] = administered in vivo; cited from earlier work
[13] = in vivo; cited from earlier work

CC(=O)NCCCCCCNC(C)=O [HMBA, Hexamethylene bis-acetamide, reference compound]
Recruitment of CDK9 to HEXIM1 gene [1]: induce recruitment of CDK9
Recruitment of CDK9 to HEXIM1 gene [2]: induce recruitment of CDK9
p21 expression [3]: induced p21 expression
p21 expression [4]: induction of p21 expression
Cell differentiation (lipid droplets, Nile red) [5]: induced differentiation
Cell differentiation (lipid droplets, Nile red) [6]: induced differentiation
HEXIM1 expression [7]: induced HEXIM1 expression
Sensitivity of TOTR cells to trans-hydroxytamoxifen [8]: enhanced the sensitivity
Expression of proteins directly regulated by HEXIM1 [9]: regulated expression of proteins
Concentrations at which HMBA induces HEXIM1 [10]: one to five
Water solubility [11]: water soluble
Half-life [12]: short half-life
Tissue distribution [12]: poor tissue distribution
Toxicity in Phase II clinical trial [13]: dose-dependent toxicity
